According to US10519114B2, “Peptidomimetics and methods of using the same” (The Regents of the University of Michigan, priority 2016, dated 2019):

How the values were obtained:
[1] = molecular target: T1, rat δ (C6-DOR) opioid receptor (Rattus norvegicus, UniProt P33533); test: Radioligand binding assay, [3H]diprenorphine displacement, DOR; conditions: displacement of 0.2 nM [3H]diprenorphine, C6-DOR membranes; mean ± standard error
T1 construct: expressed in transfected cells
Method in brief: (§1)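 Membranes from C6 glioma cells stably expressing rat MOR or DOR, or CHO cells expressing human KOR (20 μg protein), were incubated with 0.2 nM [3H]diprenorphine and test peptide in 50 mM Tris-HCl pH 7.4 for 1 h at room temperature. Nonspecific binding defined with 10 μM naloxone; Ki from nonlinear regression.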

[2] = molecular target: T2, human κ (CHO-KOR) opioid receptor (Homo sapiens, UniProt P41145); test: Radioligand binding assay, [3H]diprenorphine displacement, KOR; conditions: displacement of 0.2 nM [3H]diprenorphine, CHO-KOR membranes; mean ± standard error
T2 construct: expressed in transfected cells
Method in brief: as §1

[3] = molecular target: T1, rat δ (C6-DOR) opioid receptor; test: Stimulation of [35S]GTPγS binding, DOR; assay type: biochemical; conditions: for EC50 / EC50 (nm) DOR: [35S]GTPγS binding, C6-DOR membranes, mean ± standard error; for Emax / % stimulation DOR: [35S]GTPγS maximal stimulation compared with 10 μM standard DPDPE
Method in brief: (§2)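 Membranes (10–20 μg protein) from C6 glioma cells expressing rat MOR or DOR, or CHO cells expressing human KOR, were incubated 1 h at room temperature with 0.1 nM [35S]GTPγS, 30 μM GDP and test peptides in Tris buffer pH 7.4. Bound label was filtered and counted; maximal stimulation, by nonlinear regression, was relative to 10 μM DAMGO (MOR), DPDPE (DOR) or U69,593 (KOR).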

[4] = molecular target: T3, rat μ (C6-MOR) opioid receptor (Rattus norvegicus, UniProt P33535); test: Radioligand binding assay, [3H]diprenorphine displacement, MOR; conditions: displacement of 0.2 nM [3H]diprenorphine, C6-MOR membranes; mean ± standard error
T3 construct: expressed in transfected cells
Method in brief: as §1

[5] = molecular target: T2, human κ (CHO-KOR) opioid receptor; test: Stimulation of [35S]GTPγS binding, KOR; assay type: biochemical; conditions: for Emax / % stimulation KOR: [35S]GTPγS maximal stimulation compared with 10 μM standard U-69,593; for EC50 / EC50 (nm) KOR: [35S]GTPγS binding, CHO-KOR membranes, mean ± standard error
Description: In Vitro Pharmacology-Cell Lines and Membrane Preparations. All tissue culture reagents were purchased from Gibco Life Sciences (Grand Island, N.Y., U.S.). C6-rat glioma cells stably transfected with a rat μ (C6-MOR) or rat δ (C6-DOR) opioid receptor20 and Chinese hamster ovary (CHO) cells stably expressing a human K (CHO-KOR) opioid receptor21 were used for all in vitro assays. Cells were grown to confluence at 37° C. in 5% CO2 in Dulbecco's modified Eagle medium containing 10% fetal bovine serum and 5% penicillin/streptomycin. Membranes were prepared by washing confluent cells three times with ice cold phosphate buffered saline (0.9% NaCl, 0.61 mM Na2HPO4, 0.38 mM KH2PO4, pH 7.4). Cells were detached from the plates by incubation in warm harvesting buffer (20 mM HEPES, 150 mM NaCl, 0.68 mM EDTA, pH 7.4) and pelleted by centrifugation at 200 g for 3 min. The cell pellet was suspended in ice-cold 50 mM Tris-HCl buffer, pH 7.4, and homogenized with a Tissue Tearor (Biospec Products, Inc., Bartlesville, Okla., U.S.) for 20 s at setting 4. The homogenate was centrifuged at 20 000 g for 20 min at 4° C., and the pellet was rehomogenized in 50 mM Tris-HCl with a Tissue Tearor for 10 s at setting 2, followed by recentrifugation. The final pellet was resuspended in 50 mM Tris-HCl and frozen in aliquots at […]. Protein concentration was determined via Bradford assay using bovine serum albumin as the standard.
Stimulation of [^35S]GTPyS Binding. Agonist stimulation of [35S]guanosine 5′-O-[γ-thio]triphosphate ([^35S]GTPγS, 1250 Ci, 46.2 TBq/mmol) binding was measured as described previously Briefly, membranes (10-20 μg of protein/tube) were incubated 1 h at room temperature in GTPyS buffer (50 mM Tris-HCl, 100 mM NaCl, 5 mM MgCl2, pH 7.4) containing 0.1 nM [^35S]GTPγS, 30 μM guanosine diphosphate (GDP), and varying concentrations of test peptides. Peptide stimulation of [^35S]GTPyS was compared with 10 μM standard compounds [D-Ala^2,N-MePhe^4,Gly-ol]encephalin (DAMGO) at MOR, D-Pen^2,5-enkephalin (DPDPE) at DOR, or […] at KOR. The reaction was terminated by rapidly filtering through GF/C filters and washing 10 times with GTPyS buffer, and retained radioactivity was measured as described above. The results presented are the mean±standard error from at least three separate assays performed in duplicate; maximal stimulation was determined using nonlinear regression analysis with GraphPad Prism (GraphPad Software Inc., La Jolla, Calif.).

[6] = molecular target: T3, rat μ (C6-MOR) opioid receptor; test: Stimulation of [35S]GTPγS binding, MOR; assay type: biochemical; conditions: for EC50: [35S]GTPγS binding, C6-MOR membranes, mean ± standard error; for Emax: [35S]GTPγS maximal stimulation compared with 10 μM standard DAMGO
Method in brief: as §2

T1 sequence (P33533 whole entry): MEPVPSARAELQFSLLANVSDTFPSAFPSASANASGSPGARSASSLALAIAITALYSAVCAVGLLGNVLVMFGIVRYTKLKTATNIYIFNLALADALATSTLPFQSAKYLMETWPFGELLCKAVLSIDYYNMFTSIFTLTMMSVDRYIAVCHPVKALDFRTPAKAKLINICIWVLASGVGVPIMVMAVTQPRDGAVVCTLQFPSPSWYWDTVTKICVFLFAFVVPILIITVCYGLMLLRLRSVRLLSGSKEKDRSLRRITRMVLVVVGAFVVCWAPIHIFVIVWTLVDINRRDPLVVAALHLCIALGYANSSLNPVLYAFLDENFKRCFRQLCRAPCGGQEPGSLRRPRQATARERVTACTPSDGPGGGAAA
T2 sequence (P41145 whole entry): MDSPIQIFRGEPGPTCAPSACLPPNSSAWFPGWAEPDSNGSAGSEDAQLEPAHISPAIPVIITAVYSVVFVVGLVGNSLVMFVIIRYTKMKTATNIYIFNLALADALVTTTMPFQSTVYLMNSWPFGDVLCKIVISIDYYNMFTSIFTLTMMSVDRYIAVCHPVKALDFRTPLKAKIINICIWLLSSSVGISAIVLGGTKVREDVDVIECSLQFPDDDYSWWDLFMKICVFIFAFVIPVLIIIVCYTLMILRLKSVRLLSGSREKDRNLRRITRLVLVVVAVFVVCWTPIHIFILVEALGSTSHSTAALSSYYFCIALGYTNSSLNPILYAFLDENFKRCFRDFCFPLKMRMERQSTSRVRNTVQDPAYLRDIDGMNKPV
T3 sequence (P33535 whole entry): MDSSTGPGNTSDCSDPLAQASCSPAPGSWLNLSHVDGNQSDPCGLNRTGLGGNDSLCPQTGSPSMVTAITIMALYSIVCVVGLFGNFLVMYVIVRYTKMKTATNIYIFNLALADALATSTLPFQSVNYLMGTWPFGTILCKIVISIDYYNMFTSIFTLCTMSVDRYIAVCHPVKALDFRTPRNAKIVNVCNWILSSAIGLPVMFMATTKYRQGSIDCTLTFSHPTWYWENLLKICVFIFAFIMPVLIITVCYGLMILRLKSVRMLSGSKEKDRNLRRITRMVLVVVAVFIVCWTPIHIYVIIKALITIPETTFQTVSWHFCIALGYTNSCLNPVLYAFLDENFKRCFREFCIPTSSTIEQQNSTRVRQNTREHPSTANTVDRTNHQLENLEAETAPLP

Compound	Ki [1] [nM]	Ki [2] [nM]	EC50 [3] [nM]	Emax [3] [%]	Ki [4] [nM]	Emax [5] [%]	EC50 [6] [nM]	Emax [6] [%]	EC50 [5] [nM]	EC50 (nm) DOR [3]	% stimulation DOR [3]	EC50 (nm) KOR [5]	% stimulation KOR [5]
CCCCCCc1ccc2c(c1)[C@@H](NC(=O)[C@@H](N)Cc1c(C)cc(O)cc1C)CCN2 [Compound 1012]	1240 ± 438	3900	> 10000	22	297 ± 72	0	> 1000	18					
CCCCCc1ccc2c(c1)[C@H](NC(=O)[C@@H](N)Cc1c(C)cc(O)cc1C)CCN2 [Compound 1013]	8.81 ± 2.89	22.5 ± 10.3		0	0.22 ± 0.09	23.7 ± 0.83	12 ± 5.77	20.2 ± 7.11	543 ± 148				
Cc1cc(O)cc(C)c1C[C@H](N)C(=O)N[C@@H]1C[C@@H](C)Nc2ccc(Cc3ccccc3)cc21 [Compound 1014]	87.2 ± 56.2	238 ± 21.7	627 ± 88.9	44.9 ± 8.25	1.24 ± 0.5	28.9 ± 12.3	8.93 ± 4	87.8 ± 2	4070				
Cc1cc(O)cc(C)c1C[C@H](N)C(=O)N(C1CC1)[C@@H]1CCNc2ccc(Cc3ccccc3)cc21 [Compound 1015]	23.4 ± 10.9	58.9 ± 28.5	149 ± 42	19.5 ± 2.83	25.6 ± 9.83	-1.84 ± 1.83	131 ± 21.2	15.8 ± 3.75					
Cc1cc(O)cc(C)c1C[C@H](N)C(=O)N(C1CC1)C1CCNc2ccc(Cc3ccccc3)cc21 (some centres unmarked) [Compound 1016]	52.5 ± 17.8	28.6 ± 7.24		0.82 ± 3.63	5.33 ± 2.43	-0.01 ± 0.01	28.4 ± 4.4	40.1 ± 10.7					
Cc1cc(O)cc(C)c1C[C@H](N)C(=O)NC1CCNc2ccc(Oc3ccccc3)cc21 (some centres unmarked) [Compound 1017]	13.9 ± 6.7	65.5 ± 9.66	108 ± 53.3	9.8 ± 5.49	0.42 ± 0.04	23.6	14.9 ± 5.37	68 ± 2.33	957				
CC(=O)N1CC[C@@H](NC(=O)[C@@H](N)Cc2c(C)cc(O)cc2C)c2cc(Oc3ccccc3)ccc21 [Compound 1019]	4.21 ± 1.26	32.98 ± 0.1	222	15.8	0.1 ± 0.02	37.3	6.49 ± 3.21	76.6 ± 2.66	1080				
CC(=O)N1CC[C@@H](NC(=O)[C@@H](N)Cc2c(C)cc(O)cc2C)c2cc(Oc3ccc(Cl)cc3)ccc21 [Compound 1026]	3.1 ± 0.69	45.5 ± 6.67		0	0.1 ± 0.03	47.3	7.01 ± 1.49	61.2 ± 6.93	1820				
CC(=O)N1CC[C@@H](NC(=O)[C@@H](N)Cc2c(C)cc(O)cc2C)c2cc(Oc3cccc(Cl)c3)ccc21 [Compound 1027]	5.03 ± 0.29	21	431 ± 216	7.42 ± 5.57	0.05 ± 0.01	55.1	8.07 ± 4.81	72.2 ± 2.41	791				
Cc1cc(O)cc(C)c1C[C@H](N)C(=O)N[C@@H]1CCNc2ccc(Cc3c(Cl)cccc3Cl)cc21 [Compound 1032]	4.61 ± 0.06	4.85 ± 0.66			0.08 ± 0.01	0	2040	33.6		dns	dns		
Cc1cc(C(N)=O)cc(C)c1C[C@H](N)C(=O)N[C@@H]1CCNc2ccc(Cc3ccccc3)cc21 [Compound 1048]	32.3 ± 7.57	170 ± 49.1	1590 ± 738	24.5 ± 3.25	0.6 ± 0.12		9.2 ± 4.58	97.9 ± 4.71				dns	dns
Cc1ccc2c(c1)CN(Cc1ccc3c(c1)[C@H](NC(=O)[C@@H](N)Cc1c(C)cc(O)cc1C)CCN3)CC2 [Compound 1049]	23.3 ± 2.51	11.9 ± 6.13			0.17 ± 0.06		0.35 ± 0.11	111 ± 4.65		dns	dns	dns	dns
Cc1cc(O)cc(C)c1C[C@H](N)C(=O)N[C@@H]1CCNc2ccc(Cc3ccc4c(c3)OCCO4)cc21 [Compound 1050]	5.48 ± 0.81	116 ± 65.1			0.35 ± 0.11		5.54 ± 0.12	87.5 ± 12		dns	dns	dns	dns
Cc1cc(O)cc(C)c1C[C@H](N)C(=O)N[C@@H]1CCNc2ccc(CN3CCC[C@H]4CCCC[C@@H]43)cc21 [Compound 1051]	9.5 ± 1.22	7.03 ± 1.36			0.18 ± 0.03		1.22 ± 0.07	36.2 ± 8.14		dns	dns	dns	dns
Cc1cc(O)cc(C)c1C[C@H](N)C(=O)N[C@@H]1CCNc2ccc(S(=O)(=O)c3ccccc3)cc21 [Compound 1052]	2.92 ± 0.41	26 ± 7.12			3.01 ± 1.87	38.5	12.9 ± 1.35	68.9 ± 10.3	1310	dns	dns		
